# Columns and labels:
# [1] = target: T1, CGRP receptor in attached whole SK-N-MC cells (Homo sapiens, UniProt O60894+Q16602); assay: Cellular functional assay, cyclic AMP assay; type: cell-based; details: 0.3 nM CGRP
# T1 construct: endogenous in cells; host or cells: SK-N-MC human neuroblastoma cells (membrane homogenate or attached whole cells)
# Procedure: The CGRP receptor complex is coupled to the Gs class of G proteins. Binding of CGRP to this complex leads to the production of cyclic AMP (adenosine 3′S′-cyclic monophosphate) via Gs-dependent activation of adenylate cyclase.
# Functional antagonism by Compound I is determined by measuring its ability to inhibit CGRP-stimulated formation of cyclic AMP in attached whole SK-N-MC cells. SK-N-MC cells are incubated at room temperature with 0.3 nM CGRP alone for 30 minutes, or pre-incubated with various concentrations of Compound I for 15 minutes before the addition of 0.3 nM CGRP and then further incubated for 30 minutes. The Cyclic AMP (cAMP) produced is extracted using the “Lysis Reagent” and its concentration is determined by radioimmunoassay using RPA559 cAMP SPA Direct Screening Assay Kit (Amersham Pharmacia Biotech). IC50 values are defined as the concentration of compound required to inhibit 50% of 0.3 nM CGRP-stimulated cAMP production. Ymax is defined as maximal percent inhibition of 0.3 nM CGRP-stimulated cAMP production.
# [2] = test system: CGRP-induced increases in marmoset facial blood flow; assay: Marmoset facial blood flow; type: in vivo, common marmosets (Callithrix jacchus)
# Procedure: To evaluate the in vivo efficacy of novel CGRP receptor antagonists, marmosets receive a series of four intravenous injections of hαCGRP (at 45 min intervals). The first serves as a baseline control, and is followed by subcutaneous delivery of test article. The subsequent three CGRP challenges provide an assessment of functional CGRP antagonism in vivo.
# Adult male and female common marmosets (Callithrix jacchus) weighing 350-650 g serve as subjects.
# Animals are anesthetized by isoflurane inhalation in an induction chamber (4-5% rapid induction, maintained with 1-2.5%; Solomon et al., 1999). Anesthesia is maintained by delivering a constant supply of air:oxygen (50:50) and isoflurane via intubation and ventilation (with blood gas monitoring). Body temperature is maintained at 38±0.5° C. by placement on an automated temperature controlled surface with rectal probe. A small area of fur (approx. 1.5 cm square) is removed from one or both sides of the face by application of a depilatory cream and/or shaving. Surgical areas are clipped and prepared with betadine. An IV line is placed in the saphenous vein for the administration of test compounds and the CGRP receptor agonist hαCGRP. Additionally this IV line provides for withdrawal of blood samples (max 2.5 ml, 10%) for blood gas monitoring and analysis of compound plasma levels. A solution of 5% dextrose is administered IV in order to maintain blood sugar levels. Anesthesia depth is monitored by measuring blood pressure and heart rate using a non-invasive arm cuff method and a pulse oximeter, respectively. […] Microvascular blood flow is monitored by attaching a self adhesive laser Doppler flow probe to the facial skin. The probe records the number of red blood cells crossing the path of two laser beams, multiplied by their velocity (reported as changes in flux).
# Test compounds are administered SC (0.1-0.6 ml/kg) in the nape of the neck. The CGRP-receptor agonist, hαCGRP is delivered IV (1 ml/kg) at a dose of 10 μg/kg.
# To assess in vivo efficacy and duration of action, a control increase in facial blood flow is induced by administration of hαCGRP (10 μg/kg IV) 30 min prior (−0.5 hr) to drug delivery. Compound I is then administered at time zero (0 min) and repeat hαCGRP are delivered at 45 min intervals for ˜2 hr (data collected at 0.25, 1 and 1.75 hrs post-dose). Compound I is dosed at 0.003, 0.01 and 0.03 mg/kg, SC. Plasma samples are obtained just before each hαCGRP administration. Following testing, animals are returned to the transport cage which is placed on a temperature controlled surface that keep the animals warm until fully awake and ambulatory. Animals may be tested again after a 14-21 day rest and washout period.
# [3] = target: T2, CGRP receptor (CGRP-stimulated cAMP production) (Homo sapiens, UniProt O60894+Q16602); assay: Schild analysis of CGRP-stimulated cAMP production; type: cell-based
# T2 construct: endogenous in cells; host or cells: SK-N-MC human neuroblastoma cells (membrane homogenate or attached whole cells)
# T2 sequence (Q16602 23-461): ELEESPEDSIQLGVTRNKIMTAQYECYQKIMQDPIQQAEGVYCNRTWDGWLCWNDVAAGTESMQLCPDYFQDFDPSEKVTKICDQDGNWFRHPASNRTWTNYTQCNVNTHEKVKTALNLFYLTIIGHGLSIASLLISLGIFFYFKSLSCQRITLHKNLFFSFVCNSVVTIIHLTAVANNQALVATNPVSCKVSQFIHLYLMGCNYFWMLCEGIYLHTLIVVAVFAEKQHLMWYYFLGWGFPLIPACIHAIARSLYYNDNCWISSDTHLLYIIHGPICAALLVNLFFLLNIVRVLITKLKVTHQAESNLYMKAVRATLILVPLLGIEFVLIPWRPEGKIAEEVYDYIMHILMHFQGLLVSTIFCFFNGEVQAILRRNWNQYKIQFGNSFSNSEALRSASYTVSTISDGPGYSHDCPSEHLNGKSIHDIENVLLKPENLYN
# T2 sequence (O60894 27-148): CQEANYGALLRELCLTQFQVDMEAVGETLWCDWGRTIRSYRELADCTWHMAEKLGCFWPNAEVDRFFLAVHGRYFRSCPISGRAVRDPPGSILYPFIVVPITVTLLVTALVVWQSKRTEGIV
# Procedure: Schild analysis is used to characterize the nature of the antagonism of Compound I. The dose response of CGRP-stimulated cAMP production is generated either with CGRP alone, or with CGRP in the presence of various concentrations of Compound I. Specifically, dose-dependent cAMP stimulation by CGRP is assayed with or without five different concentrations of Compound I. The concentration of Compound I is plotted on the X-axis against the dose ratio minus 1 on the Y-axis (dose ratio is defined as the EC50 of CGRP in the presence of Compound I divided by the EC50 of CGRP alone). Linear regression is then performed with both X and Y axes log-transformed. […] Kb is the antagonist dissociation constant.
# [4] = target: T3, CGRP receptor, SK-N-MC cell membrane preparation (Homo sapiens, UniProt O60894+Q16602); assay: Saturation binding of [125I]CGRP with or without Compound I
# T3 construct: endogenous in cells; host or cells: SK-N-MC human neuroblastoma cells (membrane homogenate or attached whole cells)
# T3 sequence (Q16602 23-461): as the sequence (Q16602 23-461) above
# T3 sequence (O60894 27-148): as the sequence (O60894 27-148) above
# Procedure: The nature of the interaction between the endogenous CGRP peptide and Compound I is studied in detail using saturation binding experiments. Briefly, the binding of [^125I]CGRP to the SK-N-MC cell membrane preparation is measured with increasing concentration of [^125I]CGRP without (control condition) or in the presence of (test conditions) one of the two concentrations (30 pM and 100 pM) of Compound I. Saturation data are analyzed with hyperbolic equations using Kell software (Biosoft, Cambridge, UK) to estimate dissociation constant (Kd) and the maximum number of binding sites (Bmax). The impact of the addition of Compound I to the binding parameters (Kd, Bmax) of [^125I]CGRP is measured and compared.
# [5] = marmoset, efficacy vs. exposure
# [6] = in the presence of 30 pM Compound I
# [7] = in the presence of 100 pM Compound I
# T1 sequence (Q16602 23-461): as the sequence (Q16602 23-461) above
# T1 sequence (O60894 27-148): as the sequence (O60894 27-148) above
smiles,measurement,setting,value
"Cc1cc(C[C@@H](NC(=O)N2CCC(c3cc4ccccc4[nH]c3=O)CC2)C(=O)N2CCN(C3CCN(C)CC3)CC2)cc2cn[nH]c12 [Compound I, (R)—N-(3-(7-methyl-1H-indazol-5-yl)-1-(4-(1-methylpiperidin-4-yl)piperazin-1-yl)-1-oxopropan-2-yl)-4-(2-oxo-1,2-dihydroquinolin-3-yl)piperidine-1-carboxamide]","Ymax, maximal percent inhibition of CGRP-stimulated cAMP production",[1],95.4 (±1.3) %
same,IC50,"[1]; read-out: IC50, inhibition of CGRP-stimulated cAMP production",38.6 ± 4.2 pM
same,inhibition of CGRP-induced increases in facial blood flow,"[2]; 0.003 mg/kg SC, at 0.25 hr",20%
same,inhibition of CGRP-induced increases in facial blood flow,"[2]; 0.003 mg/kg SC, later test times",no effect
same,inhibition of CGRP-induced increases in facial blood flow,"[2]; 0.01 mg/kg SC, across all post-dose test times",35-40%
same,inhibition of CGRP-induced increases in facial blood flow,"[2]; 0.03 mg/kg SC, at 0.25, 1 and 1.75 hr post-dose",53-80%
same,plasma levels associated with maximal efficacy,[2]; [5],≥ 25 nM
same,plasma levels associated with significant in vivo efficacy,[2]; [5],≥ 8 nM
same,Schild analysis mean slope,[3],1.02±0.04
same,Kb,"[3]; Schild analysis, read-out: mean antagonist dissociation constant Kb",21.5 ± 9.4 pM
same,Bmax of [125I]CGRP,[4]; [6],112.1 ± 20.6 fmol/mg protein
same,Kd of [125I]CGRP,[4]; [6],58.0 ± 19.6 pM
same,Bmax of [125I]CGRP,[4]; [7],146.8 ± 6.4 fmol/mg protein
same,Kd of [125I]CGRP,[4]; [7],129.7 ± 31.9 pM
